# Entries after “also recorded” stand apart in the source; their conditions may differ.
# Key:
# [1] = tested on: IL-1β-stimulated hPSC-HEPs; assay: Inflammatory marker gene expression (qPCR) in IL-1β-stimulated hPSC-HEPs; assay type: cell-based, human; settings: 10 μM, 48 hours
# Protocol: (§1) Hepatocytes were generated from hPSCs by a growth factor-based differentiation protocol described in our previous protocol. After 20 days of differentiation, the cells were harvested using a serial 2× TrypLE Express treatment and further dissociated into single cells by passing them through a 40 μm cell strainer. These single cells were then seeded at 2.5×10^5 cells per well in a Collagen I (50 μg/ml, Biolaboratories, Cat. No.: 354236)-coated dishes. Attachment and recovery were promoted by seeding them in step IV differentiation medium with Hepatocyte growth factor (R&D, Cat. No.: 294-HGN-005), Follistatin (R&D, Cat. No.: FS-288), Oncostatin (R&D, Cat. No.: 295-OM-010) and Y-27632 (Rock Inhibitor) to prevent anoikis in the freshly harvested hPSC-HEPs. Next day, media was changed to Williams E medium (Sigma, Cat. No.: W1878) without serum and cells were serum starved overnight prior to nutraceutical treatments. Nutraceuticals quercetin (Sigma, Cat. No.: Q4951) and genistein (Sigma, Cat. No.: G6649) were administered at a single dose of 10 μM. Hepatocytes in this work were derived from H9-ESCs. In hepatic characterization, primary human hepatocytes (PHH) and HUH7 cells were used as positive controls, while HeLa cells were used as negative control.
# Total RNA was prepared using RNeasy mini kit (Qiagen, cat. no. 74104). […]
# hPSC-ECs = assay: LC-MS metabolic profile of nutraceuticals by hPSC-ECs; assay type: in vitro ADME, human; settings: hPSC-EC conditioned media
# IL-8 [2] = assay: Endothelial-hepatocyte co-culture: IL-8 protein; assay type: cell-based, human; settings: co-culture of hPSC-ECs with hPSC-HEPs, 10 μM for 48 hours prior to IL-1β stimulation
# Protocol: (§2) H9-ESCs were used to generate the ECs and hepatocytes for co-culture experiments and assays with nutraceuticals. Both cell types were derived from an isogenic source of hPSC to ensure a robust endothelial-hepatic model without confounding phenotypic differences due to genetic variations. The IBIDI μ-slide 2×9 wells were used for creating the co-culture setup. Each minor well was first coated with Collagen I and then a total of 2.5×10^5 hPSC-ECs and hPSC-HEPs were seeded in individual wells in a 1:1 ratio within a major well to allow equivalent contribution of paracrine factors between the two cell types (FIG. 5A). After cell attachment, the media was changed to 1:1 William's E and EGM-2 without serum, to be commonly shared by hPSC-ECs and hPSC-HEPs in a major well. Upon overnight serum starvation, the co-cultures were pre-conditioned with 10 μM of Quercetin or Genistein for 48 hours prior to IL-1β stimulation.
# (§3) Conditioned EGM-2 media were collected, and concentration of human IL-8 was determined using the human IL-8 ELISA kit (Invitrogen, cat. no. KHC0081) according to manufacturer's instructions.
# IL-8 [3] = assay: IL-8 ELISA of conditioned media of IL-1β-stimulated hPSC-ECs, monoculture; assay type: cell-based, human
# Protocol: (§4) After the hPSC colonies attached, they were first induced to drive early mesoderm differentiation for 36 hours, using a chemically defined media, supplemented with human recombinant FGF2 (20 ng/ml, R&D Systems, cat. no. 233-FB), LY294002 (10 μM, Sigma, cat. no. L9908), and human recombinant BMP4 (10 ng/ml, R&D Systems, cat. no. 314-BP). Lateral plate mesoderm was further induced for another 3.5 days in media supplemented with human recombinant FGF2 (20 ng/ml) and BMP4 (50 ng/ml), with media change every 2 days. On day 5, the lateral plate mesoderm population was trypsinized using TrypLE Express (Gibco, cat. no. 12604) and plated on matrigel-coated plates in the same basal media supplemented with FGF2 (4 ng/ml), SB431542 (10 μM, Sigma, cat. no. S4317) and VEGF (50 ng/ml, R&D Systems, cat. no. 293-VE) with media change every 2-3 days. On day 10, PECAM1-expressing endothelial cells were sorted using fluorescence-activated cell sorting with PECAM1 antibody (Biolegend, cat. no. 303110). The PECAM1+ cells were plated at a density of 5×10^4/cm^2 onto collagen I-coated plate in commercial media EGM-2 (Lonza, cat. no. CC-3162). For every 500 ml EGM-2 media used, the following supplements are included: human epidermal growth factor (0.5 ml); VEGF, 0.5 ml; R3-insulin growth factor-1, 0.5 ml; Ascorbic acid, 0.5 ml; Hydrocortisone, 0.2 ml; hFibroblast growth factor-beta, 2.0 ml; FBS, 10.0 ml; Gentamicin Amphotericin, 0.5 ml. hPSC-ECs were passaged using TrypLE Express when they reached more than 75% confluency. Fresh complete EGM-2 media were replaced every 2-3 days. All experiments were performed on cells up to passage 10. hPSC-ECs derived from three different cell lines, H9-ESCs (FIGS. 1-5), IMR90-iPSCs and BJ-iPSCs (FIGS. 7-8), were functionally characterized and used in inflammatory activation assays. In EC marker and functional characterization, human coronary artery ECs (HCAECs) were used as positive control, while HeLa cells and human hepatocellular carcinoma cells (HUH7) were used as negative controls.
# as §3
# [4] = cited from earlier work
# NFκB [5] = assay: Endothelial-hepatocyte co-culture: NFκB nuclear translocation in IL-1β-stimulated hPSC-ECs; assay type: cell-based, human; settings: co-culture of hPSC-ECs with hPSC-HEPs, 10 μM for 48 hours prior to IL-1β stimulation
# Protocol: as §2
# Cells were fixed with 4% paraformaldehyde (Nacalai Tesque, cat. no. 09154-14) and permeabilized by 0.5% Triton X-100 (Acros Organics, cat. no. 215680010) in PBS with Ca^2+ and MG^2+ at room temperature. Blocking was performed using PBS with 10% serum overnight at 4° C. Cells were incubated with the respective primary antibody diluted in 0.1% serum containing PBS for 1 hour and secondary antibodies in 0.1% serum containing PBS for another hour. […]
# NFκB [6] = assay: hPSC-HEP conditioned media on IL-1β-stimulated hPSC-ECs: NFκB nuclear translocation; assay type: cell-based, human; settings: hPSC-HEP conditioned media (10 μM, 48 hour) on IL-1β-stimulated hPSC-ECs
# Protocol: HPSC-HEPs (1.25×10^5 cells/cm^2) were cultured for 48 hour in 1:1 William's E medium+EGM-2 without serum containing 10 μM Quercetin or 10 μM Genistein. Conditioned media from hPSC-HEPs treated with quercetin or genistein were collected, and added to hPSC-ECs (that were serum starved overnight) along with 20 ng/ml of IL-13 for determination of NFκB nuclear colocalization (at 1 hour), gene expression profile of inflammatory markers (at 6 hour), and IL-8 protein levels (1 day) upon inflammation.
# (§5) Cells were fixed with 4% paraformaldehyde (Nacalai Tesque, cat. no. 09154-14) and permeabilized by 0.5% Triton X-100 (Acros Organics, cat. no. 215680010) in PBS with Ca^2+ and MG^2+ at room temperature. Blocking was performed using PBS with 10% serum overnight at 4° C. Cells were incubated with the respective primary antibody diluted in 0.1% serum containing PBS for 1 hour and secondary antibodies in 0.1% serum containing PBS for another hour. Washes were performed twice using 0.1% serum containing PBS. DAPI (1 μg/ml, Thermo, cat. no. D3571) was used to stain the cell nucleus for 10 min.
# [7] = tested on: IL-1β-stimulated hPSC-ECs; assay: Inflammatory marker gene expression (qPCR) in IL-1β-stimulated hPSC-ECs, monoculture; assay type: cell-based
# Protocol: as §4
# Total RNA was prepared using RNeasy mini kit (Qiagen, cat. no. 74104). Each RNA sample (250 ng) was reverse transcribed into cDNA using Maxima First Strand cDNA Synthesis kit (Thermo, cat. no. K1641). qPCR was performed on a StepOnePlus Real-Time PCR system (Thermo) using FAST SYBR green master mix (Thermo, cat. no. 4385616). Expression levels were normalized to the housekeeping gene glyceraldehyde 3-phosphate dehydrogenase (GAPDH).
# [8] = higher concentrations; cited from earlier work
# primary rat hepatocytes = assay: LC-MS metabolic profile of nutraceuticals by primary rat hepatocytes; assay type: in vitro ADME; settings: rat, 10 μM
# Protocol: The metabolic potential of the hPSC-HEPs and primary rat hepatocytes (freshly isolated according to our previously established protocol) were tested by exposing them to nutraceuticals quercetin and genistein (10 μM) over different durations. Internal standard (Emodin, 10 ng/ml) was added to the conditioned media. The SPE column (Phenomenex, Strata C18-E, 55 μm, 70 Å) was conditioned by washing with 1 ml methanol and then 2 ml DI water. Conditioned media was added into the column and 1.5 mL 30% methanol was added to elute the impurity such as phenol red in the medium. 0.1% Formic acid methanol was added to the column to elute all the metabolites and internal standard out to a 15 mL tube. Liquid in the 15 mL tube was dried under N2 in a sample concentrator with 30° C. heater. After drying the sample, 100 μL of 0.1% formic acid methanol was added to the 15 mL tube and vortex for 30 s and transfer to another 1.5 mL tube. The samples were then centrifuged at 13,000 rpm for 10 min at 4° C. and 10 μl of the supernatant was injected into LC-MS. High performance liquid chromatography combined with electrospray ionization ion trap time-of-flight multistage mass spectrometry (HPLC-DAD-ESI-ITTOF-MSn) analyses were performed with a Shimadzu LCMS-IT-TOF instrument, which was composed of two LC-20AD pumps, an SIL-20AC autosampler, a CTO-20A column oven, a CBM-20A system controller, an ESI ion source, and an IT-TOF mass spectrometer (Shimadzu, Kyoto, Japan).
# [9] = tested on: co-culture of hPSC-ECs and hPSC-HEPs; assay: LC-MS metabolite profile in co-cultured media of hPSC-ECs and hPSC-HEPs; assay type: in vitro ADME, human
# Protocol: as §2
# (§6) The metabolic potential of the hPSC-HEPs and primary rat hepatocytes (freshly isolated according to our previously established protocol) were tested by exposing them to nutraceuticals quercetin and genistein (10 μM) over different durations. Internal standard (Emodin, 10 ng/ml) was added to the conditioned media. The SPE column (Phenomenex, Strata C18-E, 55 μm, 70 Å) was conditioned by washing with 1 ml methanol and then 2 ml DI water. […]
# NFκB [10] = assay: NFκB nuclear translocation (immunostaining) in IL-1β-stimulated hPSC-ECs, monoculture; assay type: cell-based, human
# Protocol: as §4, §5
# hPSC-HEPs = assay: LC-MS metabolic profile of nutraceuticals by hPSC-HEPs; assay type: in vitro ADME, human; settings: human, 10 μM
# Protocol: as §1
# as §6, with “water. Conditioned media was added into the column and 1.5 mL 30% methanol was added to elute the impurity such as phenol red in the medium. 0.1% Formic acid methanol was added to the column to elute all the metabolites and internal standard out to a 15 mL tube. Liquid in the 15 mL tube was dried under N2 in a sample concentrator with 30° C. heater.” for “water.”
# IL-8 [11] = assay: IL-8 ELISA of conditioned media of IL-1β-stimulated hPSC-HEPs; assay type: cell-based, human; settings: 10 μM, 48 hours
# Protocol: as §1, with “In hepatic characterization, primary human hepatocytes (PHH) and HUH7 cells were used as positive controls, while HeLa cells were used as negative control.” left out
# as §3
# [12] = BJ-ECs and IMR90-ECs, IL-1β stimulation
compound,measurement,setting,value
O=c1c(O)c(-c2ccc(O)c(O)c2)oc2cc(O)cc(O)c12 [quercetin],inflammatory gene (marker) expression,[1],significant reduction; also recorded: decreased most of the inflammatory marker expression
same,level of parent nutraceutical over time,hPSC-ECs,decrease over time
same,IL-8 protein levels / secretion,IL-8 [2],remarkably decreased; also recorded: significantly reduced
same,IL-8 protein levels from conditioned media,"IL-8 [3]; 10 μM, 48 hours, IL-1β-stimulated hPSC-ECs, monoculture",no significant reduction
same,bioavailability in human plasma,[4]; human plasma,very low
same,plasma concentrations,[4]; plasma,300 to 3500 nM
same,NFκB nuclear translocation (colocalization),NFκB [5],significant suppression; also recorded: significantly decreased
same,NFκB nuclear translocation,NFκB [6],did not seem to inhibit
same,gene expression of inflammatory markers versus IL-1β stimulated levels,"[7]; 10 μM, up to 72 hours, IL-1β-stimulated hPSC-ECs, monoculture",did not show substantial reduction
same,safety and tolerability,[8],safe and well tolerated
same,time of treatment by which substantial metabolites had emerged,primary rat hepatocytes,≤ 6 h
same,metabolites detectable in medium,[9],detectable levels of various metabolites
same,NFκB nuclear translocation levels,"NFκB [10]; 10 μM, IL-1β-stimulated hPSC-ECs, monoculture",remained elevated
same,optimal duration of conversion into metabolites (most metabolites peaked),hPSC-HEPs,48 h
same,production of IL-8 protein from conditioned media,IL-8 [11],significantly suppressed
"IL-1β: human recombinant inflammatory cytokine, interleukin-1 beta, used to stimulate inflammation [reference compound]",IL-8 production,IL-8 [3]; [12],elevated
same,production of IL-8 from conditioned media versus unstimulated cells,"IL-8 [3]; H9-derived hPSC-ECs, IL-1β-stimulated",significantly higher
same,expression of inflammatory genes,[7]; [12],up-regulation
same,expression of inflammatory genes versus unstimulated,"[7]; H9-derived hPSC-ECs, human recombinant IL-1β 20 ng/ml, 6 hours",significant up-regulation
same,NFκB nuclear translocation,NFκB [10]; [12],increase
same,nuclear translocation of NFκB,"NFκB [10]; H9-derived hPSC-ECs, IL-1β 20 ng/ml, 1 hour",evident

# — patent US20190300851A1, “HUMAN STEM CELL DERIVED ENDOTHELIAL CELLS, ENDOTHELIAL-HEPATOCYTE CO-CULTURE SYSTEM AND USES THEREOF” (AGENCY FOR SCIENCE, TECHNOLOGY AND RESEARCH, priority 2016, published 2019)
